This passage reports Binding % results from patent US11377441B2, “Covalent inhibitors of KRAS” (Araxes Pharma LLC, priority 2017, dated 2022).

For this assay, the target named is T1, KRAS G12C 1-169, his-tagged protein, GDP-loaded (Homo sapiens, UniProt P01116, G12C).
T1 construct: KRAS G12C 1-169, his-tagged protein, GDP-loaded
The assay can be described thus: Biochemical assay: covalent modification of KRAS G12C measured by mass spectrometry (RapidFire/TOF or Q-Exactive). The assay is classed as binding. As to conditions: covalent binding to (modification of) KRAS G12C after a ten minute incubation period. As for the experimental part: Test compounds were prepared as 10 mM stock solutions in DMSO (Fisher cat #BP-231-100). KRAS G12C 1-169, his-tagged protein, GDP-loaded is diluted to 2 μM or 0.5 μM in buffer (20 mM Hepes, 150 mM NaCl, 1 mM MgCl2). Compounds were tested for activity as follows:
Compounds were diluted to 50× final test concentration in DMSO in 96-well storage plates. Compound stock solutions were vortexed before use and observed carefully for any sign of precipitation. Dilutions are as follow: • For 100 μM final compound concentration, compounds were diluted to 5000 μM (5 μL 10 mM compound stock+5 μL DMSO and mixed well by pipetting. • For 30 μM final compound concentration, compounds were diluted to 1500 μM (3 μL 10 mM compound stock+17 μL DMSO) and mixed well by pipetting. • For 10 μM final compound concentration, compounds were diluted to 500 μM (2 μL 10 mM compound stock+38 μL DMSO) and mixed well by pipetting. 49 μL of the stock protein solution was added to each well of a 96-well PCR plate (Fisher cat #1423027). 1 μL of the diluted 50× compounds were added to appropriate wells in the PCR plate using 12-channel pipettor. Reactions were mixed carefully and thoroughly by pipetting up/down with a 200 μL multi-channel pipettor. The plate was sealed well with aluminum plate seal, and stored in drawer at room temperature for 10 minutes, 30 minutes, 2 hours or 24 hours. 5 μL of 2% formic acid (Fisher cat #A117) in de-ionized H2O was then added to each well followed by mixing with a pipette. The plate was then resealed with aluminum seal and stored on dry ice until analyzed as described below.
The above described assays were analyzed by mass spectrometry according to one of the following two procedures:
The MS instrument was set to positive polarity, 2 GHz resolution, and low mass (1700) mode and allowed to equilibrate for 30 minutes. The instrument was then calibrated, switched to acquisition mode and the appropriate method loaded.
After another 30 minute equilibration time, a blank batch (i.e., buffer) was run to ensure equipment is operating properly. The samples were thawed at 37° C. for 10 minutes, briefly centrifuged, and transfer to the bench top. Wells A1 and H12 were spiked with 1 μL 500 μM internal standard peptide, and the plates centrifuged at 2000×g for 5 minutes. The method was then run and masses of each individual well recorded.
The masses (for which integration data is desired) for each well were pasted into the platemap and exported from the analysis. Masses for the internal standards were exported as well. The data at 50 ppm was extracted for the +19 charge state, and identity of well A1 was assigned using the internal standard spike and integrated. Peak data was exported as a TOF list and the above steps were repeated individually, for the +20, 21, 22, 23, 24, and 25 charge states.
The masses and peak intensities of KRAS G12C protein species were measured using a Dionex RSLCnano system (Thermo Scientific) connected to a Q Exactive Plus mass spectrometer (Thermo Scientific).
[…] of sample was each loaded onto a Aeris™ 3.6 μm WIDEPORE C4 200 Å, LC Column 50×2.1 mm column maintained at 40° C. at a flow rate of 600 μL/min with 20% Solvent A (0.1% formic acid in H2O) and […] (0.1% formic acid in acetonitrile). The liquid chromatography conditions were 20% solvent B for 1 minute, 20% to 60% solvent B for 1.5 minutes, 60% to 90% solvent for 0.5 minute, 90% solvent B for 0.2 minute, 90% to 20% solvent B for 0.2 minute, and then equilibrated for 1.6 minutes before the following sample injection. The flow rate was maintained at 600 μL/min throughout the sample analysis.
The mass spectrometer was operated in profile mode at a resolution of 17500, 5 microscans, using 50 msec max injection time and an AGC target of 1×10^6, and a full mass range from 800-1850 m/z was recorded. The HCD trapping gas was optimized for maximum sensitivity for intact proteins. […]

For the compound `C=CC(=O)N1C[C@H](C)N(c2nc(N3CC(N(C)C)C3)nc3c(F)c(-c4c(C)ccc5nn(C)cc45)c(Cl)cc23)C[C@H]1C` (atropisomer, axis not shown) [Compound 88, 1-((2R,5S)-4-((R)-6-chloro-7-(2,5-dimethyl-2H-indazol-4-yl)-2-(3-(dimethylamino)azetidin-1-yl)-8-fluoroquinazolin-4-yl)-2,5-dimethylpiperazin-1-yl)prop-2-en-1-one], the Binding % result is listed as “++ (++ indicates binding activity from 50 to 80%)”.
As to `C=CC(=O)N1C[C@H](C)N(c2nc(N3CC(N(C)C)C3)nc3c(F)c(-c4c(C)ccc5[nH]nc(N)c45)c(Cl)cc23)C[C@H]1C` (atropisomer, axis not shown) [Compound 89, 1-((2R,5S)-4-((R)-7-(3-amino-5-methyl-1H-indazol-4-yl)-6-chloro-2-(3-(dimethylamino)azetidin-1-yl)-8-fluoroquinazolin-4-yl)-2,5-dimethylpiperazin-1-yl)prop-2-en-1-one], the Binding % result is recorded as “+++ (+++ indicates binding activity greater than 80%)”.
Regarding `C=CC(=O)N1C[C@H](C)N(c2nc(N3CC(N(C)C)C3)nc3c(F)c(-c4c(C)ccc5[nH]nc(N)c45)c(Cl)cc23)C[C@H]1C` (atropisomer, axis not shown) [Compound 90, 1-((2R,5S)-4-((S)-7-(3-amino-5-methyl-1H-indazol-4-yl)-6-chloro-2-(3-(dimethylamino)azetidin-1-yl)-8-fluoroquinazolin-4-yl)-2,5-dimethylpiperazin-1-yl)prop-2-en-1-one], the Binding % result is “+ (+ indicates binding activity greater than 0% and up to 50%)”.
The same measure for `C=CC(=O)N1C[C@H](C)N(c2nc(N3CC(N(C)C)C3)nc3c(F)c(-c4c(C)ccc5onc(N)c45)c(Cl)cc23)C[C@H]1C` (atropisomer, axis not shown) [Compound 96, 1-((2R,5S)-4-((S)-7-(3-amino-5-methylbenzo[d]isoxazol-4-yl)-6-chloro-2-(3-(dimethylamino)azetidin-1-yl)-8-fluoroquinazolin-4-yl)-2,5-dimethylpiperazin-1-yl)prop-2-en-1-one]: “+ (+ indicates binding activity greater than 0% and up to 50%)”; for `C=CC(=O)N1C[C@H](C)N(c2nc(N3CC(N(C)C)C3)nc3c(F)c(-c4c(C)ccc5[nH]nc(C)c45)c(Cl)cc23)C[C@H]1C` (atropisomer, axis not shown) [Compound 97, 1-((2R,5S)-4-((S)-6-chloro-7-(3,5-dimethyl-1H-indazol-4-yl)-2-(3-(dimethylamino)azetidin-1-yl)-8-fluoroquinazolin-4-yl)-2,5-dimethylpiperazin-1-yl)prop-2-en-1-one]: “+ (+ indicates binding activity greater than 0% and up to 50%)”; for `C=CC(=O)N1C[C@H](C)N(c2nc(N3CC(N(C)C)C3)nc3c(F)c(-c4c(C)ccc5[nH]nc(C)c45)c(Cl)cc23)C[C@H]1C` (atropisomer, axis not shown) [Compound 98, 1-((2R,5S)-4-((R)-6-chloro-7-(3,5-dimethyl-1H-indazol-4-yl)-2-(3-(dimethylamino)azetidin-1-yl)-8-fluoroquinazolin-4-yl)-2,5-dimethylpiperazin-1-yl)prop-2-en-1-one]: “+++ (+++ indicates binding activity greater than 80%)”.
With `C=CC(=O)N1CCN(c2nc(N3CC(N(C)C)C3)nc3c(F)c(-c4c(C)ccc5[nH]nc(C6CC6)c45)c(Cl)cc23)C[C@H]1C` (atropisomer, axis not shown) [Compound 101, 1-((R)-4-((S)-6-chloro-7-(3-cyclopropyl-5-methyl-1H-indazol-4-yl)-2-(3-(dimethylamino)azetidin-1-yl)-8-fluoroquinazolin-4-yl)-2-methylpiperazin-1-yl)prop-2-en-1-one], the Binding % entry was “+ (+ indicates binding activity greater than 0% and up to 50%)”.
As to `C=CC(=O)N1CCN(c2nc(N3CC(N(C)C)C3)nc3c(F)c(-c4c(C)ccc5[nH]nc(C6CC6)c45)c(Cl)cc23)C[C@H]1C` (atropisomer, axis not shown) [Compound 102, 1-((R)-4-((R)-6-chloro-7-(3-cyclopropyl-5-methyl-1H-indazol-4-yl)-2-(3-(dimethylamino)azetidin-1-yl)-8-fluoroquinazolin-4-yl)-2-methylpiperazin-1-yl)prop-2-en-1-one], the Binding % result is “+++ (+++ indicates binding activity greater than 80%)”.
Turning to `C=CC(=O)N1CCN(c2nc(N3CC(N(C)C)C3)nc3c(F)c(-c4c(C)ccc5[nH]nc(C6CC6)c45)c(Cl)cc23)CC1` (atropisomer, axis not shown) [Compound 103, (S)-1-(4-(6-chloro-7-(3-cyclopropyl-5-methyl-1H-indazol-4-yl)-2-(3-(dimethylamino)azetidin-1-yl)-8-fluoroquinazolin-4-yl)piperazin-1-yl)prop-2-en-1-one], the Binding % entry is “+ (+ indicates binding activity greater than 0% and up to 50%)”.
For the compound `C=CC(=O)N1CCN(c2nc(N3CC(N(C)C)C3)nc3c(F)c(-c4c(C)ccc5[nH]nc(C6CC6)c45)c(Cl)cc23)CC1` (atropisomer, axis not shown) [Compound 104, (R)-1-(4-(6-chloro-7-(3-cyclopropyl-5-methyl-1H-indazol-4-yl)-2-(3-(dimethylamino)azetidin-1-yl)-8-fluoroquinazolin-4-yl)piperazin-1-yl)prop-2-en-1-one], the Binding % result is “+++ (+++ indicates binding activity greater than 80%)”.
Take `C=CC(=O)N1C[C@H](C)N(c2nc(N3CC(N(C)C)C3)nc3c(F)c(-c4c(C)ccc5cn(C)nc45)c(Cl)cc23)C[C@H]1C` (atropisomer, axis not shown) [Compound 105, 1-((2R,5S)-4-((R)-6-chloro-7-(2,6-dimethyl-2H-indazol-7-yl)-2-(3-(dimethylamino)azetidin-1-yl)-8-fluoroquinazolin-4-yl)-2,5-dimethylpiperazin-1-yl)prop-2-en-1-one]: the Binding % entry is reported as “++ (++ indicates binding activity from 50 to 80%)”.
Then `C=CC(=O)N1C[C@H](C)N(c2nc(NC3CCN(C4CC4)CC3)nc3c(F)c(-c4c(C)ccc5[nH]nc(C6CC6)c45)c(Cl)cc23)C[C@H]1C` (atropisomer, axis not shown) [Compound 110, 1-((2R,5S)-4-((S)-6-chloro-7-(3-cyclopropyl-5-methyl-1H-indazol-4-yl)-2-(1-cyclopropylpiperidin-4-ylamino)-8-fluoroquinazolin-4-yl)-2,5-dimethylpiperazin-1-yl)prop-2-en-1-one], with “+ (+ indicates binding activity greater than 0% and up to 50%)”.
For `C=CC(=O)N1C[C@H](C)N(c2nc(NC3CCN(C4CC4)CC3)nc3c(F)c(-c4c(C)ccc5[nH]nc(C6CC6)c45)c(Cl)cc23)C[C@H]1C` (atropisomer, axis not shown) [Compound 111, 1-((2R,5S)-4-((R)-6-chloro-7-(3-cyclopropyl-5-methyl-1H-indazol-4-yl)-2-(1-cyclopropylpiperidin-4-ylamino)-8-fluoroquinazolin-4-yl)-2,5-dimethylpiperazin-1-yl)prop-2-en-1-one], the Binding % result was “++ (++ indicates binding activity from 50 to 80%)”.
Then `C=CC(=O)N1C[C@H](C)N(c2nc(OCCN3CCOCC3)nc3c(F)c(-c4c(C)ccc5[nH]nc(C6CC6)c45)c(Cl)cc23)C[C@H]1C` (atropisomer, axis not shown) [Compound 112, 1-((2R,5S)-4-((S)-6-chloro-7-(3-cyclopropyl-5-methyl-1H-indazol-4-yl)-8-fluoro-2-(2-morpholinoethoxy)quina-zolin-4-yl)-2,5-dimethylpiperazin-1-yl)prop-2-en-1-one], with “+ (+ indicates binding activity greater than 0% and up to 50%)”.
